Reference: paper PMC2263054, “Functional evolution of the vitamin D and pregnane X receptors” (BMC Evolutionary Biology, 2007)
Where two headings read alike, the source gives them in different places.

Assays:
Ciona VDR/PXR = conditions: for Ciona VDR/PXR EC50 ± SD: HepG2-NTCP cells, luciferase reporter, unit not given, also cells saying No effect
Human VDR = molecular target: T1, Human VDR (Homo sapiens, UniProt P11473); experiment: luciferase reporter transactivation assay in HepG2-NTCP cells, full-length hVDR with CYP3A4-PXRE-Luc; conditions: for EC50: read-out: Human VDR EC50 ± SD; for EC50 / Human VDR EC50 ± SD: HepG2-NTCP cells, luciferase reporter; for Human VDR EC50 ± SD: unit not given, also cells saying No effect
T1 sequence (P11473 1-427): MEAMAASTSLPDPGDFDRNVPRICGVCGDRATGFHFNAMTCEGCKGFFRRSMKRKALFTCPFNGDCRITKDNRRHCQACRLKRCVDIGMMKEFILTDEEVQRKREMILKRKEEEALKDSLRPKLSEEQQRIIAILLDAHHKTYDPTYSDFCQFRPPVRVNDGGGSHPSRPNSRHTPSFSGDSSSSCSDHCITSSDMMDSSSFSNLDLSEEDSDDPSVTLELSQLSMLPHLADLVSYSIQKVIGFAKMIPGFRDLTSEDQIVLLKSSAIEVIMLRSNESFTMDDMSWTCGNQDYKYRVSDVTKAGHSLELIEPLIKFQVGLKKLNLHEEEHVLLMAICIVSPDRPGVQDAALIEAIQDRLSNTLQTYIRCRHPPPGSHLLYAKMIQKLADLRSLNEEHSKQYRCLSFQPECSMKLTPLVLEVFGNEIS

Xenopus laevis VDR = molecular target: T2, Xenopus laevis VDR (Xenopus laevis, UniProt O13124); experiment: luciferase reporter transactivation assay in HepG2-NTCP cells, GAL4/xlVDR LBD chimera with tk-UAS-Luc; format: cell-based; conditions: for Xenopus VDR relative efficacy: relative to maximal reference compound (1 μM calcitriol, efficacy = 1.0); for EC50 / Xenopus VDR EC50 ± SD: HepG2-NTCP cells, luciferase reporter; for EC50: read-out: Xenopus VDR EC50 ± SD; for Xenopus VDR EC50 ± SD: unit not given, also cells saying No effect; for Effect on Xenopus laevis VDR: screening for activators, at least three concentrations of each drug
T2 sequence (O13124 90-422): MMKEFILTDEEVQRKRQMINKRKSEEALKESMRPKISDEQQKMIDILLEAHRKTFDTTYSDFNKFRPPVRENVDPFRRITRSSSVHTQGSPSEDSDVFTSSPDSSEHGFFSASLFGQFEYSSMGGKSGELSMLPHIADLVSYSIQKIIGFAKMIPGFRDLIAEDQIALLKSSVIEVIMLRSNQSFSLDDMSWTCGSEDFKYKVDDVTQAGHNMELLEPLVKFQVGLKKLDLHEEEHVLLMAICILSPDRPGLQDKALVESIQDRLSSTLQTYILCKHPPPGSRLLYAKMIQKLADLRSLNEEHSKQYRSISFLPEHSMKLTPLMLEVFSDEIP

Mouse VDR = molecular target: T3, Mouse VDR (Mus musculus, UniProt P48281); experiment: luciferase reporter transactivation assay in HepG2-NTCP cells, full-length mVDR with CYP3A4-PXRE-Luc; conditions: for EC50: read-out: Mouse VDR EC50 ± SD
T3 sequence (P48281 1-422): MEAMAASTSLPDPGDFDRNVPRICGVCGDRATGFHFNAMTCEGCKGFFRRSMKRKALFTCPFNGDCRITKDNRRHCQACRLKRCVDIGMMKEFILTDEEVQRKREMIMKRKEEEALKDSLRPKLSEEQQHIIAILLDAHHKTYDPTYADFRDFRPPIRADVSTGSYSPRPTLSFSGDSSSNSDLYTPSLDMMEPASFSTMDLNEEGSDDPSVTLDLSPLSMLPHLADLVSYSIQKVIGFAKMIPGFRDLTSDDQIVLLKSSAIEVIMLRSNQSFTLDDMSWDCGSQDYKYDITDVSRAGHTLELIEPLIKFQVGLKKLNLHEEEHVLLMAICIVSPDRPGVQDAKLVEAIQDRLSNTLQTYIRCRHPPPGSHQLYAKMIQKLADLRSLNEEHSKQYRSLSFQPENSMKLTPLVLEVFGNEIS

Sea lamprey VDR = molecular target: T4, Sea lamprey VDR (Petromyzon marinus, UniProt Q7ZZY9); format: cell-based; conditions: for EC50: read-out: Sea lamprey VDR EC50 ± SD; for Effect on sea lamprey VDR: screening for activators, at least three concentrations of each drug
T4 sequence (Q7ZZY9 92-406): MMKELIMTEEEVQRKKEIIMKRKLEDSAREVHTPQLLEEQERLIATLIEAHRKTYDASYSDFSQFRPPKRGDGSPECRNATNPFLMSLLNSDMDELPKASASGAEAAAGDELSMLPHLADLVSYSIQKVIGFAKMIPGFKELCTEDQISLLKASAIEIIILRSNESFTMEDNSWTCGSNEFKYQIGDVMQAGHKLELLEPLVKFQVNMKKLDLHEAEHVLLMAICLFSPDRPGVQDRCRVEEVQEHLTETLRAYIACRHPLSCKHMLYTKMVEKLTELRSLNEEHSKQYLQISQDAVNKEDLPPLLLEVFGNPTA

Zebrafish VDR = molecular target: T5, Zebrafish VDR (Danio rerio, UniProt Q9PTN2); experiment: luciferase reporter transactivation assay in HepG2-NTCP cells, GAL4/zfVDR LBD chimera with tk-UAS-Luc; format: cell-based; conditions: for Zebrafish VDR relative efficacy: relative to maximal reference compound (1 μM calcitriol, efficacy = 1.0); for EC50 / Zebrafish VDR EC50 ± SD: HepG2-NTCP cells, luciferase reporter; for EC50: read-out: Zebrafish VDR EC50 ± SD; for Zebrafish VDR EC50 ± SD: unit not given, also cells saying No effect; for Effect on zebrafish VDR: screening for activators, at least three concentrations of each drug
T5 sequence (Q9PTN2 121-453): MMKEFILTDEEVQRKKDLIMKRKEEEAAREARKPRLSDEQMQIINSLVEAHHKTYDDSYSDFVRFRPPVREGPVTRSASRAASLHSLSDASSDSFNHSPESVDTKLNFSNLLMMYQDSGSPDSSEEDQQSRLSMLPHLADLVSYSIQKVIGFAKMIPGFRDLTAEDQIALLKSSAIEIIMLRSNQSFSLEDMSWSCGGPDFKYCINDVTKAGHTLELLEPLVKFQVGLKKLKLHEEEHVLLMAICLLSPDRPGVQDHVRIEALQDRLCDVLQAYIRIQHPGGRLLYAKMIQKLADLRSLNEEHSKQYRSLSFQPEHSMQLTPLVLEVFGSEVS

[1] = system: testosterone 6β-hydroxylation; experiment: testosterone hydroxylation (HPLC) in sea lamprey primary hepatocytes; format: cell-based; conditions: concentration ranges per compound
Description: 100 μL of sample, calibration standard, or quality material standard were pipetted into separate microcentrifuge tubes and mixed with 100 μL of methanol. Samples were vortexed and centrifuged at 13,000 rpm for 4 min. The supernatant was then injected into the HPLC.
The flow rate was 1.2 mL/min and total run time was 25 min.

[2] = relative to maximal reference compound (1 μM calcitriol, efficacy = 1.0)
[3] = relative to maximal reference compound (0.5 μM calcitriol, efficacy = 1.0)
[4] = HepG2-NTCP cells, luciferase reporter
[5] = HepG2-NTCP cells, luciferase reporter, unit not given, also cells saying No effect

## O=Cc1c2[nH]c3ccccc3c2cc2[nH]c3ccccc3c12 [6-Formylindolo-[3,2-b]-carbazole]
Ciona VDR/PXR; relative to maximal reference compound (20 μM 6-formylindolo-[3,2-b]-carbazole, efficacy = 1.0)
  Ciona VDR/PXR relative efficacy: 1.0
Ciona VDR/PXR; unpublished data of the authors
  activation of ciVDR/PXR: activated
Human VDR; [2]
  Human VDR relative efficacy: ~0.12
Xenopus laevis VDR
  Xenopus VDR relative efficacy: ~0.10
Mouse VDR; [3]
  Mouse VDR relative efficacy: ~0.08
Sea lamprey VDR
  Sea lamprey VDR relative efficacy: 0.25
Zebrafish VDR
  Zebrafish VDR relative efficacy: < 0.03

## C=C1CC[C@H](O)C/C1=C/C=C1\CCC[C@]2(C)[C@@H]([C@H](C)CC[C@@H](O)C(C)(C)O)CC[C@@H]12 [24(R),25-(OH)2-Vitamin D3]
Ciona VDR/PXR
  Ciona VDR/PXR EC50 ± SD: No effect
Human VDR
  EC50: 0.3 ± 0.02 µM
Human VDR; [2]
  Human VDR relative efficacy: 0.9
Xenopus laevis VDR
  EC50: 11 ± 1.7 µM
  Xenopus VDR relative efficacy: 0.20
Mouse VDR; [4]
  EC50: 0.3 ± 0.02 µM
Mouse VDR; [3]
  Mouse VDR relative efficacy: 1.7
Sea lamprey VDR; [4]
  EC50: 5.6 ± 0.8 µM
Sea lamprey VDR; [3]
  Sea lamprey VDR relative efficacy: 0.9
Zebrafish VDR
  EC50: 0.7 ± 0.06 µM
  Zebrafish VDR relative efficacy: 0.6

## C=C1CC[C@H](O)C/C1=C/C=C1\CCC[C@]2(C)[C@@H]([C@H](C)CCCC(C)(C)O)CC[C@@H]12 [25-Hydroxyvitamin D3]
[1]
  effect on testosterone 6β-hydroxylation: None of these compounds produced significant increases in testosterone 6β-hydroxylation
Ciona VDR/PXR
  Ciona VDR/PXR EC50 ± SD: No effect
Human VDR
  Human VDR relative efficacy: 1.22
Human VDR; unit M
  EC50: 1.5 ± 0.2 µM
Xenopus laevis VDR
  EC50: 11 ± 0.8 µM
  Xenopus VDR relative efficacy: 0.67
Mouse VDR
  Mouse VDR relative efficacy: 2.62
Mouse VDR; [4]
  EC50: 0.6 ± 0.1 µM
Sea lamprey VDR
  Sea lamprey VDR relative efficacy: 0.63
Sea lamprey VDR; [4]
  EC50: 19 ± 2.1 µM
Zebrafish VDR
  EC50: 7.3 ± 0.8 µM
  Zebrafish VDR relative efficacy: 0.91

## C[C@H](CCC(=O)NCC(=O)O)[C@H]1CC[C@H]2[C@@H]3CC[C@@H]4C[C@H](O)CC[C@]4(C)[C@H]3CC[C@]12C [Glycolithocholic acid]
Ciona VDR/PXR
  Ciona VDR/PXR EC50 ± SD: No effect
Human VDR
  Human VDR EC50 ± SD: No effect
Xenopus laevis VDR
  Xenopus VDR EC50 ± SD: No effect
Mouse VDR
  Mouse VDR relative efficacy: 0.28
Sea lamprey VDR; [5]
  Sea lamprey VDR EC50 ± SD: No effect
Zebrafish VDR
  Zebrafish VDR EC50 ± SD: No effect

## C[C@H](CCC(=O)O)[C@H]1CC[C@H]2[C@@H]3CC[C@@H]4C[C@H](OS(=O)(=O)O)CC[C@]4(C)[C@H]3CC[C@]12C [Lithocholic acid 3-sulfate]
Ciona VDR/PXR
  Ciona VDR/PXR EC50 ± SD: No effect
Human VDR
  Human VDR EC50 ± SD: No effect
Xenopus laevis VDR
  Xenopus VDR EC50 ± SD: No effect
Mouse VDR; [5]
  Mouse VDR EC50 ± SD: No effect
Sea lamprey VDR
  Sea lamprey VDR EC50 ± SD: No effect
Zebrafish VDR
  Zebrafish VDR EC50 ± SD: No effect

## CC(=O)[C@H]1CC[C@H]2[C@@H]3CC=C4C[C@@H](O)CC[C@]4(C)[C@H]3CC[C@]12C [Pregnenolone]
[1]
  effect on testosterone 6β-hydroxylation: None of these compounds produced significant increases in testosterone 6β-hydroxylation
Xenopus laevis VDR
  Effect on Xenopus laevis VDR: No effect
Sea lamprey VDR
  Effect on sea lamprey VDR: No effect
Zebrafish VDR
  Effect on zebrafish VDR: No effect

## C[C@H](CCC(=O)NCCS(=O)(=O)O)[C@H]1CC[C@H]2[C@@H]3CC[C@@H]4C[C@H](O)CC[C@]4(C)[C@H]3CC[C@]12C [Taurolithocholic acid]
Ciona VDR/PXR
  Ciona VDR/PXR EC50 ± SD: No effect
Human VDR
  Human VDR EC50 ± SD: No effect
Xenopus laevis VDR
  Xenopus VDR EC50 ± SD: No effect
Mouse VDR; [3]
  Mouse VDR relative efficacy: 0.23
Sea lamprey VDR; [5]
  Sea lamprey VDR EC50 ± SD: No effect
Zebrafish VDR
  Zebrafish VDR EC50 ± SD: No effect

## Pregnenolone sulfate
[1]
  effect on testosterone 6β-hydroxylation: None of these compounds produced significant increases in testosterone 6β-hydroxylation
Xenopus laevis VDR
  Effect on Xenopus laevis VDR: No effect
Sea lamprey VDR
  Effect on sea lamprey VDR: No effect
Zebrafish VDR
  Effect on zebrafish VDR: No effect
